Laboratory results taken from paper PMC9181014, “De Novo Development of Mitochondria-Targeted Molecular Probes Targeting Pink1” (International Journal of Molecular Sciences, 2022).
Numbered stars: 1 amine (or outer) side, 2 acyl side, 3 side chain; on linkers, the order of the positions; unused ones are H or OH. Bridge positions count the residues as written; N and C are the ends. Ends that are not written are not given here. Peptide text beside a SMILES is read from it. Suc = O=C(CCC(=O)[*:2])[*:1]

T1: Tribolium castaneum Pink1 (TcPink1) (Tribolium castaneum, UniProt D6WMX4 6-570)
T1 construct: No cleavage of MBP is described; also called pMal4c Pink1 (Tribolium castaneum) DU34701; not shown: MBP (from the vector pMal4c)
T1 sequence (looked up): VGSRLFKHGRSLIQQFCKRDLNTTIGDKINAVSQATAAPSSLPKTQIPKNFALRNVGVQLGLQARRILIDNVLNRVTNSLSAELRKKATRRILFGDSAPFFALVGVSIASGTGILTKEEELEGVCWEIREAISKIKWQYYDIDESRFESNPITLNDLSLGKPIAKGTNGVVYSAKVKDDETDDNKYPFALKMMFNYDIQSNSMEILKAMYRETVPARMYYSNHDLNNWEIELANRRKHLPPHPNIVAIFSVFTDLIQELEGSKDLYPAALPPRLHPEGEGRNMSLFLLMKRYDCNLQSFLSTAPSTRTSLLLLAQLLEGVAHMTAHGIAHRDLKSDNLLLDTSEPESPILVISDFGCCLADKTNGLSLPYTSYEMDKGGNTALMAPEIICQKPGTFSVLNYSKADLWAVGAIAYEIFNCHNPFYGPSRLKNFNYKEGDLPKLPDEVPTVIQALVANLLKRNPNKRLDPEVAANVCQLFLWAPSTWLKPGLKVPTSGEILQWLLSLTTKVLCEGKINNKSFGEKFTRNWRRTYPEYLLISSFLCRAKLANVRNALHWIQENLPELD


Legend:
TcPink1 [1] = target: T2, TcPink1 (Tribolium castaneum, UniProt D6WMX4); assay: Peptide binding to immobilized protein in vitro, field-effect biosensing (FEB); settings: AGILE Dev Kit graphene biosensor chip, protein 500 nM immobilized by EDC/sulfo-NHS, analyte 50 µL in PBS pH 7.4, Hill fit, mean ± SEM, read-out: KD of the peptides binding to TcPink1
T2 construct: host or cells: E. coli Rosetta (DE3)
Description: In brief: Protein was immobilized/cross-linked into the carboxyl group present on the activated graphene biosensor chip. The analyte is applied in solution to the chip and when an interaction occurs, an alteration in the current (I) is measured and recorded in real-time throughout the experiment. The entire cycle of the experiment starts with calibration using PBS (pH 7.4) to record the baseline equilibration response. Followed by the association step by adding analyte (50 µL) at the desired concentrations in PBS (pH 7.4). After the experiment, data at the concentration points of the analytes were exported from 3 transistors, averaged, and any background drift recorded in PBS was subtracted.
Binding data of the peptides to immobilized protein in vitro was gathered using an AGILE Dev Kit label-free binding assay (Cardea, San Diego, CA, USA). […] After a rinse in PBS, base-line current levels for the chip were recorded for at least 5 min. Next, the PBS was aspirated, and a droplet of the tested analyte (50 μL) was applied to the chip and the change in the sensor chip readout was recorded, after that the analyte was aspirated and the chip was rinsed with PBS. […] After data were gathered, the responses of the sensors on a single assay chip were averaged, and any background drift recorded in PBS was subtracted. […] The KD values were calculated by GraghPad Prism 9, statistical analysis software. […]

trypsin [2] = target: T3, trypsin (Sus scrofa, UniProt P00761); assay: Stability of peptides under tryptic degradation, HPLC; format: in vitro ADME; settings: pig, trypsin from porcine pancreas, porcine pancreas trypsin (1 µL of 1 mg/mL), peptide 2 mg in 800 µL 50 mM Tris pH 8.0, 37 °C, RP-HPLC, 214 nm, relative to time zero, n = 3; for metabolised at 0.5 h, 2.5 mg/mL: 30 min, read-out: Degradation of the peptide by trypsin after 30 min
T3 construct: purchased Sigma-Aldrich; host or cells: porcine pancreas
T3 sequence (P00761 9-231): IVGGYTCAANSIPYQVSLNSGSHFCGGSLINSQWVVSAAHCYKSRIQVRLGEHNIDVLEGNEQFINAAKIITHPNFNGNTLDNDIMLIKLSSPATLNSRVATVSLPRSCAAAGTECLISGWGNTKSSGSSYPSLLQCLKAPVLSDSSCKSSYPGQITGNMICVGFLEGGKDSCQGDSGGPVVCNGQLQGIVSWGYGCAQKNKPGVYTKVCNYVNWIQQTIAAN
Description: (§1) We tested the stability of the peptides using trypsin, an endopeptidase with specificity for cleaving the amide bond between a cationic amino acid and the next amino acid in the C-terminal direction, which is found in the digestive systems of many vertebrates, and it is commonly used as an important enzymatic reagent in biochemistry and biology.
(§2) The stability of the peptides was measured independently under tryptic degradation at 37 °C (by trypsin degradation of the peptide) and was determined by HPLC analysis (for more experimental details, see “Materials and Methods”) (n = 3). The starting time point (0 min, 100%) represents the peptide at the beginning of each experiment. […] Separation was performed by HPLC in the presence of 0.1% trifluoroacetic acid and detected by absorbance at 214 nm. Peptide amounts were calculated relative to the quantities determined at time point zero.
(§3) In brief: The stability studies of the peptides were performed by dissolving the peptides in Tris buffer and incubating them with trypsin solution at 37 °C using HPLC.
(§4) Further details: Trypsin from porcine pancreas was purchased from Sigma-Aldrich (Saint Louis, MO, USA). Peptide (2 mg) was dissolved in Tris buffer (800 µL, 50 mM (pH 8.0)). The peptide solution was mixed with 1 μL of trypsin solution (1 mg/mL in 50 mM Tris buffer (pH 8.0)). The peptide was incubated at 37 °C and samples (90 μL) were taken at 0, 5, 30, 60, and 120 min. The samples were mixed with TFA/CH3CN/H2O (2%/5%/93%, 90 µL). The peptides were analyzed by analytical reverse-phase high-pressure liquid chromatography (RP-HPLC) 1260 Infinity II LC System from Agilent, (Santa Clara, CA, USA) using a Luna 5 μm C18(2) 100 Å (250 × 4.6 mm) column (Phenomenex, Torrance, CA, USA) at 1 mL/min. The solvent systems used were A (H2O with 0.1% TFA) and B (CH3CN with 0.1% TFA). A linear gradient of 5–50% B in 15 min was applied, and the detection was at 214 nm and 254 nm.

trypsin [3] = system: T4, trypsin; assay: as above; format: in vitro ADME; settings: pig, trypsin from porcine pancreas; porcine pancreas trypsin (1 µL of 1 mg/mL); peptide 2 mg in 800 µL 50 mM Tris pH 8.0; 37 °C; 120 min; RP-HPLC, 214 nm; relative to time zero; n = 3; read-out: Degradation of the peptide by trypsin after 120 min
T4 construct: purchased Sigma-Aldrich; host or cells: porcine pancreas
Description: as §1, §2, §3, §4

TcPink1 [4] = target: T2, TcPink1; assay: Cross-linking coupled with mass spectrometry (CLMS), BS3 cross-linker; format: binding; settings: BS3 cross-link CVP198 to CVP198 (residue 11 to residue 11), self cross-link in the CVP198 + tcPINK1 sample
Description: (§5) Here, two water-soluble cross-linkers were used for the CLMS: 4-(4,6-dimethoxy-1,3,5-triazin-2-yl)-4-methyl-morpholinium chloride (DMTMM), and bis(sulfosuccinimidyl)suberate (BS3). DMTMM is a hetero-bifunctional amine-to-carboxylic acid crosslinker, and BS3 is a homo-bifunctional amine-to-amine crosslinker, which reacts primarily with the ε-amino group of lysine residues in proteins.
(§6) In brief: The recombinant protein and the peptide were incubated together with a crosslinker. The reaction was stopped with a quencher. The proteins were precipitated collected and trypsinased, the outcome was analysed by liquid chromatography mass spectrometry (LCMS).
(§7) A mixture solution of purified protein and peptide was prepared in HEPES buffer (50 mM HEPES, 150 mM NaCl (pH 8.0)). Protein TcPink1’s final concentration was 10 μM and hPink1’s final concentration was 2 μM. The peptide was added at a 1:10 or 1:100 protein-to-peptide ratio, and the mixture incubated with agitation for 20 min at room temperature. For BS3 cross-linking, a solution of BS3 in DMSO (150 mM) was used, which was diluted with the proteins to a final BS3 concentration of 1 mM. The cross-linking reaction was incubated at room temperature for 30 min with agitation. The reaction was quenched by adding ammonium bicarbonate to a final concentration of 30 mM.

TcPink1 [5] = target: T2, TcPink1; assay: Cross-linking coupled with mass spectrometry (CLMS), DMTMM cross-linker; format: binding; settings: DMTMM cross-link CVP198-CVP198 (both partners the peptide), in the CVP-198 + tcPINK1 sample
Description: as §5, §6, §7

[6] = target: T1, Tribolium castaneum Pink1 (TcPink1); assay: field-effect biosensing (FEB); TcPink1 (500 nM) covalently immobilised by EDC/sulfo-NHS on a graphene biosensor chip (AGILE Dev Kit, Cardea); peptides as analyte in PBS pH 7.4 at varying concentrations; Hill fit for KD; settings: both partners purified

| Molecule | Kd (TcPink1 [1]) [µM] | metabolised at 0.5 h, 2.5 mg/mL (trypsin [2]) [%] | metabolised at 2 h, 2.5 mg/mL (trypsin [3]) [%] | metabolised at 2 h, 2.5 mg/mL (trypsin [2]; 120 min, read-out: Degradation of the peptide by trypsin after 120 min) [%] | XL fragmentation score (TcPink1 [4]) | XL fragmentation score (TcPink1 [5]) | Kd [6] [µM] |
| --- | --- | --- | --- | --- | --- | --- | --- |
| CSCC[C@@H]1NC(=O)[C@H](CCCNC(=N)N)NC(=O)[C@H](CCC(N)=O)NC(=O)[C@H](CC(C)C)NC(=O)CNC(=O)CCC(=O)NCCCC[C@@H](C(=O)NCC(=O)NCC(=O)N[C@@H](Cc2ccc(O)cc2)C(=O)NCC(=O)N[C@@H](CCCNC(=N)N)C(=O)N[C@@H](CCCCN)C(=O)N[C@@H](CCCCN)C(=O)N[C@@H](CCCNC(=N)N)C(=O)N[C@@H](CCCNC(=N)N)C(=O)N[C@@H](CCC(N)=O)C(=O)N[C@@H](CCCNC(=N)N)C(=O)N[C@@H](CCCNC(=N)N)C(=O)N[C@@H](CCCNC(=N)N)C(N)=O)NC(=O)[C@H](CC(C)C)NC(=O)[C@H](CC(=O)O)NC(=O)[C@H](C(C)C)NC(=O)[C@H](CC(C)C)NC(=O)[C@H](C(C)C)NC1=O [CVP-199] (GLQRMVLVDLKGGYGRKKRRQRRR-NH2; linker N-11 via Suc) | 58.31 ± 0.02 | 45 | < 75 |  |  |  |  |
| Ac-GLQRMVLVDLKGGYGRKKRRQRRR-NH2 [CVP-198] | 130.47 ± 0.01 | ~70 |  | ~95 | 1 | 0.74 |  |
| GLQRMVLVDLKGGYGRKKRRQRRR-NH2 (also: backbone cyclic: spacer on N-terminal amine linked to side chain of added lysine, that lysine's position not given here, linker at N via dicarboxylic acid spacer (n = 3), other end not in the chain) [CVP-200, backbone cyclic peptide (n = 3, bridge size 10, ring size 42)] |  |  |  |  |  |  | 139 |
